Data set [1] concerns Staphylococcus aureus. Briefly: Antibacterial activity against methicillin-resistant Staphylococcus aureus clinical isolate MRSA-20 measured after 16 to 18 hrs by CLSI method. In kind it is functional. As to conditions: time 16-18 hrs.
Data set [2] relates to Staphylococcus aureus. Briefly: Antibacterial activity against methicillin-resistant Staphylococcus aureus clinical isolate MRSA-23 measured after 16 to 18 hrs by CLSI method. In kind it is functional. Conditions: time 16-18 hrs.
A short description of data set [3]: Selectivity index, ratio of HC50 for hemolytic activity in sheep erythrocytes to MIC for antibacterial activity against Staphylococcus aureus ATCC 29213. In kind it is toxicity, cell-based. As to conditions: read-out: Selectivity Index.
The nature of data set [4]: Hemolytic activity in sheep erythrocytes incubated for 1 hr by absorbance based analysis. In kind it is toxicity, cell-based, Ovis aries, Erythrocyte.
The subject of data set [5] is Staphylococcus aureus. Briefly: Antibacterial activity against Staphylococcus aureus ATCC 29213 measured after 16 to 18 hrs by CLSI method. In kind it is functional. As to conditions: time 16-18 hrs.
In data set [6] the test system is Staphylococcus aureus. Description: Antibacterial activity against methicillin-resistant Staphylococcus aureus clinical isolate MRSA-17 measured after 16 to 18 hrs by CLSI method. In kind it is functional. Conditions: time 16-18 hrs.
In data set [7] the test system is Staphylococcus aureus. Briefly: Antibacterial activity against methicillin-resistant Staphylococcus aureus clinical isolate MRSA-13 measured after 16 to 18 hrs by CLSI method. In kind it is functional. Conditions: time 16-18 hrs.
In data set [8] the test system is Staphylococcus aureus. Description: Antibacterial activity against methicillin-resistant Staphylococcus aureus clinical isolate MRSA-14 measured after 16 to 18 hrs by CLSI method. In kind it is functional. Conditions: time 16-18 hrs.
The test system of data set [9] is Staphylococcus aureus. Description: Antibacterial activity against methicillin-resistant Staphylococcus aureus clinical isolate MRSA-16 measured after 16 to 18 hrs by CLSI method. In kind it is functional. As to conditions: time 16-18 hrs.
Data set [10] has as its system Staphylococcus aureus. Description: Antibacterial activity against methicillin-resistant Staphylococcus aureus clinical isolate MRSA-22 measured after 16 to 18 hrs by CLSI method. In kind it is functional. Conditions: time 16-18 hrs.
The test system of data set [11] is Staphylococcus aureus. Briefly: Antibacterial activity against methicillin-resistant Staphylococcus aureus clinical isolate MRSA-21 measured after 16 to 18 hrs by CLSI method. In kind it is functional. As to conditions: time 16-18 hrs.
The test system of a further data set is Escherichia coli. Description: Antibacterial activity against Escherichia coli ATCC25922 measured after 16 to 18 hrs by CLSI method. In kind it is functional. Conditions: time 16-18 hrs.
Data set [12] has as its system Staphylococcus aureus. Briefly: Antibacterial activity against methicillin-resistant Staphylococcus aureus clinical isolate MRSA-18 measured after 16 to 18 hrs by CLSI method. In kind it is functional. As to conditions: time 16-18 hrs.
Data set [13] deals with Staphylococcus aureus. Briefly: Antibacterial activity against methicillin-resistant Staphylococcus aureus clinical isolate MRSA-11 measured after 16 to 18 hrs by CLSI method. In kind it is functional. Conditions: time 16-18 hrs.

Values after ≈ are worked out from the molar mass of the structure shown.

As to `COc1cc(OCCCN2CCCC(C)C2)c(CC=C(C)C)c2c1C(=O)CC(c1ccc(OCCCN3CCCC(C)C3)cc1)O2` (stereo not drawn), the MIC came to 16 µg/mL (≈ 25.3 µM) against Staphylococcus aureus [1]; 32 µg/mL (≈ 50.6 µM) in the data set on Staphylococcus aureus [2]; 16 µg/mL (≈ 25.3 µM) in the data set on Staphylococcus aureus [5]; 8 µg/mL (≈ 12.6 µM) with Staphylococcus aureus [6]; 16 µg/mL (≈ 25.3 µM) in the data set on Staphylococcus aureus [7]; 16 µg/mL (≈ 25.3 µM) against Staphylococcus aureus [8]. Further, the MIC against Staphylococcus aureus [9] is 16 µg/mL (≈ 25.3 µM); in the data set with Staphylococcus aureus [10], 16 µg/mL (≈ 25.3 µM); with Staphylococcus aureus [11] it was 32 µg/mL (≈ 50.6 µM); against Escherichia coli it was greater than 128 µg/mL; in the data set on Staphylococcus aureus [12] it was 16 µg/mL (≈ 25.3 µM); against Staphylococcus aureus [13], 32 µg/mL (≈ 50.6 µM). The selectivity ratio in [3] is greater than 80. Further, the HC50 at 1 h in [4] was greater than 1280 µg/mL.
For the compound `COc1cc(OCCCCCN2CCN(C)CC2)c(CC=C(C)C)c2c1C(=O)CC(c1ccc(OCCCCCN3CCN(C)CC3)cc1)O2` (stereo not drawn), the MIC in the data set with Staphylococcus aureus [1] turned out to be 16 µg/mL (≈ 23.2 µM); against Staphylococcus aureus [2], 16 µg/mL (≈ 23.2 µM); against Staphylococcus aureus [5] it was 16 µg/mL (≈ 23.2 µM); against Staphylococcus aureus [6], 8 µg/mL (≈ 11.6 µM); with Staphylococcus aureus [7] it was 16 µg/mL (≈ 23.2 µM); in the data set with Staphylococcus aureus [8], 16 µg/mL (≈ 23.2 µM). Also, the MIC was 16 µg/mL (≈ 23.2 µM) against Staphylococcus aureus [9]; 16 µg/mL (≈ 23.2 µM) with Staphylococcus aureus [10]; 16 µg/mL (≈ 23.2 µM) in the data set with Staphylococcus aureus [11]; greater than 128 µg/mL with Escherichia coli; 16 µg/mL (≈ 23.2 µM) in the data set on Staphylococcus aureus [12]; 16 µg/mL (≈ 23.2 µM) with Staphylococcus aureus [13]. Moreover, in data set [3], the selectivity ratio is greater than 80. The compound further displayed an HC50 at 1 h in [4] greater than 1280 µg/mL.
Consider `CCCN(CCC)CCCCOc1ccc(C2CC(=O)c3c(OC)cc(OCCCCN(CCC)CCC)c(CC=C(C)C)c3O2)cc1` (stereo not drawn), for which the MIC in the data set with Staphylococcus aureus [1], against Staphylococcus aureus [2], in the data set with Staphylococcus aureus [5], against Staphylococcus aureus [6], against Staphylococcus aureus [7] and in the data set on Staphylococcus aureus [8] was 16 µg/mL (≈ 24.1 µM) throughout. Further, the MIC in the data set with Staphylococcus aureus [9] is 16 µg/mL (≈ 24.1 µM); against Staphylococcus aureus [10] it was 16 µg/mL (≈ 24.1 µM); in the data set with Staphylococcus aureus [11] it was 16 µg/mL (≈ 24.1 µM); in the data set with Escherichia coli, greater than 128 µg/mL; against Staphylococcus aureus [12], 32 µg/mL (≈ 48.1 µM); with Staphylococcus aureus [13], 16 µg/mL (≈ 24.1 µM). Moreover, the selectivity ratio in [3] was greater than 80. This compound gave an HC50 at 1 h in data set [4] greater than 1280 µg/mL.
Consider `COc1cc(OCCCN2CCCCC2)c(CC=C(C)C)c2c1C(=O)CC(c1ccc(OCCCN3CCCCC3)cc1)O2` (stereo not drawn), for which the MIC with Staphylococcus aureus [1] was greater than 128 µg/mL; in the data set on Staphylococcus aureus [2] it was greater than 128 µg/mL; with Staphylococcus aureus [5], 64 µg/mL (≈ 106 µM); against Staphylococcus aureus [6], greater than 128 µg/mL; against Staphylococcus aureus [7], greater than 128 µg/mL; against Staphylococcus aureus [8] it was greater than 128 µg/mL. For the same compound, the MIC was 32 µg/mL (≈ 52.9 µM) in the data set on Staphylococcus aureus [9]; greater than 128 µg/mL against Staphylococcus aureus [10]; greater than 128 µg/mL against Staphylococcus aureus [11]; greater than 128 µg/mL in the data set with Escherichia coli; greater than 128 µg/mL in the data set with Staphylococcus aureus [12]; greater than 128 µg/mL with Staphylococcus aureus [13]. Moreover, the selectivity ratio in data set [3] was found to be 7.3. Further, in [4], the HC50 at 1 h is 467 µg/mL.
Regarding `CCCN(CCC)CCCOc1ccc(C2CC(=O)c3c(OC)cc(OCCCN(CCC)CCC)c(CC=C(C)C)c3O2)cc1` (stereo not drawn), the MIC against Staphylococcus aureus [1] was determined as 16 µg/mL (≈ 25.1 µM); in the data set with Staphylococcus aureus [2], 16 µg/mL (≈ 25.1 µM); against Staphylococcus aureus [5] it was 16 µg/mL (≈ 25.1 µM); with Staphylococcus aureus [6], 8 µg/mL (≈ 12.6 µM); in the data set on Staphylococcus aureus [7] it was 8 µg/mL (≈ 12.6 µM); in the data set on Staphylococcus aureus [8], 16 µg/mL (≈ 25.1 µM). The MIC in the data set with Staphylococcus aureus [9] is 8 µg/mL (≈ 12.6 µM); in the data set on Staphylococcus aureus [10], 16 µg/mL (≈ 25.1 µM); against Staphylococcus aureus [11] it was 16 µg/mL (≈ 25.1 µM); in the data set on Escherichia coli, greater than 128 µg/mL; in the data set with Staphylococcus aureus [12] it was 16 µg/mL (≈ 25.1 µM); against Staphylococcus aureus [13], 16 µg/mL (≈ 25.1 µM). The selectivity ratio in data set [3] is greater than 80. For the same compound, in data set [4], the HC50 at 1 h is greater than 1280 µg/mL.
For the compound `COc1cc(OCCCN2CCC(C)CC2)c(CC=C(C)C)c2c1C(=O)CC(c1ccc(OCCCN3CCC(C)CC3)cc1)O2` (stereo not drawn), the MIC against Staphylococcus aureus [1] was found to be 16 µg/mL (≈ 25.3 µM); in the data set with Staphylococcus aureus [2], 32 µg/mL (≈ 50.6 µM); in the data set on Staphylococcus aureus [5] it was 16 µg/mL (≈ 25.3 µM); against Staphylococcus aureus [6], 16 µg/mL (≈ 25.3 µM); with Staphylococcus aureus [7] it was 16 µg/mL (≈ 25.3 µM); against Staphylococcus aureus [8], 16 µg/mL (≈ 25.3 µM). The MIC with Staphylococcus aureus [9] was 16 µg/mL (≈ 25.3 µM); in the data set on Staphylococcus aureus [10], 16 µg/mL (≈ 25.3 µM); against Staphylococcus aureus [11], 16 µg/mL (≈ 25.3 µM); in the data set with Escherichia coli, greater than 128 µg/mL; against Staphylococcus aureus [12], 16 µg/mL (≈ 25.3 µM); against Staphylococcus aureus [13] it was 16 µg/mL (≈ 25.3 µM). Moreover, the selectivity ratio in data set [3] is greater than 80. Moreover, the HC50 at 1 h in [4] is greater than 1280 µg/mL.
With `COc1cc(OCCCCN2CCOCC2)c(CC=C(C)C)c2c1C(=O)CC(c1ccc(OCCCCN3CCOCC3)cc1)O2` (stereo not drawn), the MIC was determined as 32 µg/mL (≈ 50.2 µM) in the data set on Staphylococcus aureus [1]; 32 µg/mL (≈ 50.2 µM) in the data set on Staphylococcus aureus [2]; 32 µg/mL (≈ 50.2 µM) with Staphylococcus aureus [5]; 32 µg/mL (≈ 50.2 µM) against Staphylococcus aureus [6]; 64 µg/mL (≈ 100 µM) against Staphylococcus aureus [7]; 64 µg/mL (≈ 100 µM) in the data set with Staphylococcus aureus [8]. The MIC in the data set on Staphylococcus aureus [9] is greater than 128 µg/mL; in the data set on Staphylococcus aureus [10], 32 µg/mL (≈ 50.2 µM); against Staphylococcus aureus [11], 64 µg/mL (≈ 100 µM); against Escherichia coli, greater than 128 µg/mL; in the data set with Staphylococcus aureus [12] it was 32 µg/mL (≈ 50.2 µM); with Staphylococcus aureus [13] it was 64 µg/mL (≈ 100 µM). Further, the selectivity ratio in data set [3] was greater than 20. Moreover, in data set [4], the HC50 at 1 h was greater than 640 µg/mL.

The record behind these values is ChEMBL document CHEMBL5505992, “Novel membrane-targeting isoxanthohumol-amine conjugates for combating methicillin-resistant Staphylococcus aureus (MRSA) infections” (Eur J Med Chem, 2024).
